Results published in patent US20240150351A1, “BICYCLIC COMPOUNDS” (Aligos Therapeutics, Inc., priority 2022, published 2024).
Counter-ions that a name gives are not always drawn.

Assays:
HBV = test: HBV-DNA antiviral assay using HepG2.117 cells (intracellular HBV DNA by qPCR); format: cell-based, genotype D HBV; settings: 3 days incubation, HBV DNA inhibition
Procedure: (§1) The following assay procedure describes the HBV antiviral assay, using HepG2.117 cells, which carry a stably integrated genotype D HBV genome under the control of a Tet-off promoter, and intracellular HBV DNA quantification as endpoint. Cell viability is assessed in parallel by measuring the intracellular ATP content using CellTiter-Glo 2.0 (Promega).
On day 0, HepG2.117 cells (which are maintained in routine cell culture with doxycycline present in the medium at a final concentration of 1 μg/mL) are seeded in 96-well plates (white with clear bottom) at a density of 2.0×10^4 cells/well (0.1 mL/well) in medium without doxycycline to induce pgRNA transcription and subsequent formation of HBV particles. The cells are incubated at 37° C. and 5% CO2.
(§2) On day 1, medium is removed from each well, the test articles are diluted in culture medium without doxcycyline and 100 μL was added to cell culture wells (9 concentrations, 4-fold dilution). For each plate, 6 untreated (merely DMSO) wells are included. The final concentration of DMSO in the culture medium is 2%. Each plate is prepared in duplicate (one for HBV DNA extraction, one for CellTiter-Glo 2.0 measurement). The cells are incubated at 37° C. and 5% CO2 for 3 days.
(§3) On day 4, cell viability is assessed using CellTiter-Glo 2.0 and cell lysates are prepared for HBV DNA extraction and subsequent quantification by qPCR.
HBV DNA Quantification by qPCR
Medium is removed from each well and 100 μL of 0.33% NP-40 in H2O was added to each well. Plates are sealed, incubated at 4° C. for 5 mins, vortexed extensively and centrifuged briefly. Next, 35 μL of lysate is added to 65 μL QuickExtract DNA Extraction Solution (Epicentre) in a PCR plate for each well. PCR plate is incubated at 65° C. for 6 mins, 98° C. for 2 mins and finally cooled to 4° C. HBV DNA is then quantified by qPCR with HBV-specific primers and probes as specified in Table 2 using the Bio-Rad SSOAdvanced Universal Probes Supermix on a CFX96 machine (Bio-Rad). The PCR cycle program consisted of 95° C. for 3 mins, followed by 40 cycles at 95° C. for 10 sec and 60° C. for 30 sec.
A DNA standard is prepared by dilution of an IDT gBlock corresponding to the amplicon with concentrations ranging from 10^2 to 10^8 copies/input (i.e., per 4 μL) and used to generate a standard curve by plotting Cq values vs. HBV DNA standard concentration. The quantity of HBV DNA in each sample is determined by interpolating from the standard curve.
(§4) Cell viability is calculated as follows: % Cell viability=(luminescence value of test sample)/(average luminescence value of 2% DMSO control)×100%. HBV DNA inhibition was calculated as follows: 100−(HBV DNA copy number of test sample)/(average HBV DNA copy number of 2% DMSO control)×100%. No normalization to entecavir is required due to the excellent dynamic window of this assay. The CC50, EC50 and EC90 values were determined by dose-response curves fitted using non-linear regression.

HepG2.117 cells = test: Cell viability by CellTiter-Glo 2.0 (intracellular ATP content); format: cell-based; settings: 3 days incubation
Procedure: as §1, §2, §3
(§5) Using the other plates, the cell viability is quantified by CellTiter-Glo 2.0 according to the manufacturer's manual. In brief, 100 μL of reagent solution is added to the culture plates and shaken for 2′. The plates are incubated at rt for 10 min and luminescence signal is subsequently measured on a VarioSkan Lux (ThermoFisher) plate reader.
as §4

[1] = as above; format: cell-based; settings: human, HepG2.117 cells, 3 days incubation
Procedure: as §1, §2, §3, §5, §4

SMILES	EC50 (HBV)	CC50 (HepG2.117 cells)	EC50 (HBV; Hepatitis B virus, 72 h)	CC50 at 3 days [1]
C=C[C@H](C)Nc1nc2c(c(=O)n1-c1ccc(C(=O)N(C)C(=O)O[C@H](C)OC(=O)[C@@H](N)C(C)C)cc1)C[C@@H](C)N(C(=O)c1ccc(Br)c(C(F)(F)F)c1)C2 (relative stereo) [Compound 7, (*R)-1-(((4-((R)-7-(4-bromo-3-(trifluoromethyl)benzoyl)-2-(((S)-but-3-en-2-yl)amino)-6-methyl-4-oxo-5,6,7,8-tetrahydropyrido[3,4-d]pyrimidin-3(4H)-yl)benzoyl)(methyl)carbamoyl)oxy)ethyl L-valinate hydrochloride]	≤ 50 nM	> 50 µM		
C=C[C@H](C)Nc1nc2c(c(=O)n1-c1ccc(C(=O)N(C)C(=O)OCOP(=O)(O)O)cc1)C[C@@H](C)N(C(=O)c1ccc(Br)c(C(F)(F)F)c1)C2 [Compound 2, (phosphonooxy)methyl (4-((R)-7-(4-bromo-3-(trifluoromethyl)benzoyl)-2-(((S)-but-3-en-2-yl)amino)-6-methyl-4-oxo-5,6,7,8-tetrahydropyrido[3,4-d]pyrimidin-3(4H)-yl)benzoyl)(methyl)carbamate]			≤ 50 nM	> 50 µM
C=C[C@H](C)Nc1nc2c(c(=O)n1-c1ccc(C(=O)N(C)C(=O)OCOC(=O)[C@@H](N)C(C)C)cc1)C[C@@H](C)N(C(=O)c1ccc(Br)c(C(F)(F)F)c1)C2 [Compound 4, (((4-((R)-7-(4-bromo-3-(trifluoromethyl)benzoyl)-2-(((S)-but-3-en-2-yl)amino)-6-methyl-4-oxo-5,6,7,8-tetrahydropyrido[3,4-d]pyrimidin-3(4H)-yl)benzoyl)(methyl)carbamoyl)oxy)methyl L-valinate hydrochloride]			≤ 50 nM	> 50 µM
C=C[C@H](C)Nc1nc2c(c(=O)n1-c1ccc(C(=O)NC)cc1)C[C@@H](C)N(C(=O)c1ccc(Br)c(C(F)(F)F)c1)C2 [Compound 1, 4-((R)-7-(4-bromo-3-(trifluoromethyl)benzoyl)-2-(((S)-but-3-en-2-yl)amino)-6-methyl-4-oxo-5,6,7,8-tetrahydropyrido[3,4-d]pyrimidin-3(4H)-yl)-N-methylbenzamide]			≤ 50 nM	46.8 µM
C=C[C@H](C)Nc1nc2c(c(=O)n1-c1ccc(C(=O)N(C)CO)cc1)C[C@@H](C)N(C(=O)c1ccc(Br)c(C(F)(F)F)c1)C2 [Compound 8, 4-((R)-7-(4-bromo-3-(trifluoromethyl)benzoyl)-2-(((S)-but-3-en-2-yl)amino)-6-methyl-4-oxo-5,6,7,8-tetrahydropyrido[3,4-d]pyrimidin-3(4H)-yl)-N-(hydroxymethyl)-N-methylbenzamide]			≤ 50 nM	> 50 µM
C=C[C@H](C)Nc1nc2c(c(=O)n1-c1ccc(C(=O)N(C)C(=O)O[C@@H](OC(=O)[C@@H](N)C(C)C)C(C)C)cc1)C[C@@H](C)N(C(=O)c1ccc(Br)c(C(F)(F)F)c1)C2 (relative stereo) [Compound 11, (*R)-1-(((4-((R)-7-(4-bromo-3-(trifluoromethyl)benzoyl)-2-(((S)-but-3-en-2-yl)amino)-6-methyl-4-oxo-5,6,7,8-tetrahydropyrido[3,4-d]pyrimidin-3(4H)-yl)benzoyl)(methyl)carbamoyl)oxy)-2-methylpropyl L-valinate hydrochloride]	≤ 50 nM	> 50 µM		
C=C[C@H](C)Nc1nc2c(c(=O)n1-c1ccc(C(=O)N(C)C(=O)OCOC(=O)[C@H](N)C(C)C)cc1)C[C@@H](C)N(C(=O)c1ccc(Br)c(C(F)(F)F)c1)C2 [Compound 5, (((4-((R)-7-(4-bromo-3-(trifluoromethyl)benzoyl)-2-(((S)-but-3-en-2-yl)amino)-6-methyl-4-oxo-5,6,7,8-tetrahydropyrido[3,4-d]pyrimidin-3(4H)-yl)benzoyl)(methyl)carbamoyl)oxy)methyl D-valinate hydrochloride]			≤ 50 nM	48.8 µM
C=C[C@H](C)Nc1nc2c(c(=O)n1-c1ccc(C(=O)N(C)C(=O)O[C@@H](C)OC(=O)[C@@H](N)C(C)C)cc1)C[C@@H](C)N(C(=O)c1ccc(Br)c(C(F)(F)F)c1)C2 (relative stereo) [Compound 6, (*S)-1-(((4-((R)-7-(4-bromo-3-(trifluoromethyl)benzoyl)-2-(((S)-but-3-en-2-yl)amino)-6-methyl-4-oxo-5,6,7,8-tetrahydropyrido[3,4-d]pyrimidin-3(4H)-yl)benzoyl)(methyl)carbamoyl)oxy)ethyl L-valinate hydrochloride]	≤ 50 nM	> 50 µM		
C=C[C@H](C)Nc1nc2c(c(=O)n1-c1ccc(C(=O)N(C)C(=O)OCOC(=O)C[C@H](O)C(=O)O)cc1)C[C@@H](C)N(C(=O)c1ccc(Br)c(C(F)(F)F)c1)C2 [Compound 9, (S)-4-((((4-((R)-7-(4-bromo-3-(trifluoromethyl)benzoyl)-2-(((S)-but-3-en-2-yl)amino)-6-methyl-4-oxo-5,6,7,8-tetrahydropyrido[3,4-d]pyrimidin-3(4H)-yl)benzoyl)(methyl)carbamoyl)oxy)methoxy)-2-hydroxy-4-oxobutanoic acid]			≤ 50 nM	> 50 µM
C=C[C@H](C)Nc1nc2c(c(=O)n1-c1ccc(C(=O)N(C)C(=O)O[C@H](OC(=O)[C@@H](N)C(C)C)C(C)C)cc1)C[C@@H](C)N(C(=O)c1ccc(Br)c(C(F)(F)F)c1)C2 (relative stereo) [Compound 10, (*S)-1-(((4-((R)-7-(4-bromo-3-(trifluoromethyl)benzoyl)-2-(((S)-but-3-en-2-yl)amino)-6-methyl-4-oxo-5,6,7,8-tetrahydropyrido[3,4-d]pyrimidin-3(4H)-yl)benzoyl)(methyl)carbamoyl)oxy)-2-methylpropyl L-valinate hydrochloride]	≤ 50 nM	> 50 µM		
C=C[C@H](C)Nc1nc2c(c(=O)n1-c1ccc(C(=O)N(C)C(=O)OCOC(=O)/C=C/C(=O)O)cc1)C[C@@H](C)N(C(=O)c1ccc(Br)c(C(F)(F)F)c1)C2 [Compound 3, (E)-4-((((4-((R)-7-(4-bromo-3-(trifluoromethyl)benzoyl)-2-(((S)-but-3-en-2-yl)amino)-6-methyl-4-oxo-5,6,7,8-tetrahydropyrido[3,4-d]pyrimidin-3(41H)-yl)benzoyl)(methyl)carbamoyl)oxy)methoxy)-4-oxobut-2-enoic acid]			≤ 50 nM	> 50 µM
